# According to ChEMBL document CHEMBL3875224, “Synthesis, docking, cytotoxicity, and LTA4H inhibitory activity of new gingerol derivatives as potential colorectal cancer therapy” (Bioorg Med Chem, 2017):
# Key:
# HCT-116 = experiment: Selectivity index, ratio of IC50 for human TIG1 cells to IC50 for human HCT116 cells; type: functional
# [1] = Cytotoxicity against human HCT116 cells assessed as reduction in cell viability after 48 hrs by WST1 assay; type: functional, cell-based; conditions: HCT-116, 48 h
# [2] = biological target: T1, Leukotriene A-4 hydrolase (Homo sapiens, UniProt P09960); experiment: Inhibition of recombinant C-terminal His-tagged human LTA4H aminopeptidase activity expressed in Escherichia coli using L-alanine-4-nitro-anilide hydrochloride as substrate preincubated for 20 mins followed by substrate addition
# T1 sequence (P09960 whole entry): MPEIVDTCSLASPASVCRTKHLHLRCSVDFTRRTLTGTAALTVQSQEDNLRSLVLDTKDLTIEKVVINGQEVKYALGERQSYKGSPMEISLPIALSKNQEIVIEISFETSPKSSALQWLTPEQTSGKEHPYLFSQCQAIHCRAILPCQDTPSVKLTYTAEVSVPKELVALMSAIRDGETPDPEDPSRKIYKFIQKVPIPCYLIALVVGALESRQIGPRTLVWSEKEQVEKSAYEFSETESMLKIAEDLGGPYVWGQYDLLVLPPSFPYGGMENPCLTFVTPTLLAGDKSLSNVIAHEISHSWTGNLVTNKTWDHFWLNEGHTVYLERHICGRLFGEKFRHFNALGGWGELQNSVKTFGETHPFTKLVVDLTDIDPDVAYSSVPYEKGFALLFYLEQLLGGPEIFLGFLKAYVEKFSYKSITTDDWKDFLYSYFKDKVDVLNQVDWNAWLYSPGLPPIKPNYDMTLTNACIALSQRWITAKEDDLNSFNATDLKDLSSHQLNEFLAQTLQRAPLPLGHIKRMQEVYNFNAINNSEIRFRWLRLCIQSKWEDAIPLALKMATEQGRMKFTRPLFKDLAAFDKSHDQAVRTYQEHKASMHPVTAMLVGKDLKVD
# [3] = Cytotoxicity against human HF19 cells assessed as reduction in cell viability after 48 hrs by WST1 assay; type: toxicity, cell-based
# [4] = Cytotoxicity against human TIG1 cells assessed as reduction in cell viability after 48 hrs by WST1 assay; type: toxicity, cell-based
# [5] = biological target: T1, Leukotriene A-4 hydrolase; experiment: Inhibition of recombinant C-terminal His-tagged human LTA4H epoxide hydrolase activity expressed in Escherichia coli assessed as reduction in LTB4 production using LTA4 as substrate preincubated for 20 mins followed by substrate addition measured after 30 mins by enzyme immunoassay
SMILES,Ratio IC50 (HCT-116),IC50 [1] [µM],IC50 [2] [µM],IC50 at 48 h [3] [µM],IC50 at 48 h [4] [µM],IC50 [5] [µM]
CCCCCC(O)CC(=O)CCc1ccc(O)c(OC)c1 (configuration not stated),1.67,45.1,56.1,> 100,75.2,58.3
CCCCCC(CC(=O)CCc1ccc(O)c(OC)c1)OC (configuration not stated),–,> 100,> 100,> 100,> 100,> 100
CCCC(O)CC(=O)CCc1ccc(O)c(OC)c1 (configuration not stated),–,> 100,> 100,> 100,> 100,> 100
CCCCCCCCCC(O)CC(=O)CCc1ccc(O)c(OC)c1 (configuration not stated),3,33.4,21.6,> 100,> 100,15.2
CCCCCCCC(O)CC(=O)CCc1ccc(O)c(OC)c1 (configuration not stated),0.55,> 100,> 100,77.6,55.6,> 100
Nc1nc(-c2ccc(Cc3ccccc3)cc2)cs1,2.76,30.5,7.61,> 100,84.3,12.4
CCCCC/C=C/CCC(O)CC(=O)CCc1ccc(O)c(OC)c1 (configuration not stated),2.17,46,45.6,97.5,> 100,67.1
CCCCCC(O)CC(=O)CCc1cc(OC)c(O)c(-c2cc(CCC(=O)CC(O)CCCCC)cc(OC)c2O)c1 (configuration not stated),0.63,> 100,> 100,54.8,63.1,77.8
COc1ccc(CCC(C)=O)cc1OC,–,> 100,> 100,> 100,> 100,> 100
CCCCC/C=C/C(=O)CCc1ccc(OC)c(OC)c1,52.3,1.54,4.92,> 100,80.6,11.3
CCCCCC(O)CC(=O)CCc1ccc(OCC=C(C)C)c(OC)c1 (configuration not stated),3.87,21.5,3.01,> 100,83.2,7.25
CC(C)=CCCC(C)[C@H]1CC=C(C)C(O)[C@H]1O (some centres not stated),1,> 100,> 100,> 100,> 100,> 100
CCCCC/C=C/C(=O)CCc1ccc(OC(C)=O)c(OC)c1,3.72,26.9,9.31,> 100,> 100,29.5
CCCCCC(CC(=O)CCc1ccc(OC(C)=O)c(OC)c1)OC(C)=O (configuration not stated),3.23,30.9,22.1,> 100,> 100,27.6
CCCCCC(O)CC(=O)CCc1ccc(OC)c(OC)c1 (configuration not stated),1.21,76.5,> 100,88.4,92.8,> 100
C=CCOc1ccc(CCC(=O)CC(O)CCCCC)cc1OC (configuration not stated),0.65,> 100,56.3,> 100,64.6,66.4
CCCCCC(CC(=O)CCc1ccc(OC)c(OC)c1)OC (configuration not stated),–,> 100,> 100,> 100,> 100,> 100
CCCCC/C=C/C(=O)CCc1ccc(O)c(OC)c1 [SHOGAOL],7.77,12.9,12.5,> 100,> 100,24.6
CC(C)C[C@H](NC(=O)[C@@H](O)[C@H](N)Cc1ccccc1)C(=O)O [UBENIMEX],–,42.5,–,89.5,77.8,–
